Test results from BindingDB's records for doi:10.1080/1475636021000005721 (Universit&Eacute, 2002).

These compounds were tested against Serotonin N-acetyltransferase (Homo sapiens, UniProt Q16613) (assay: AANAT Assay). Conditions: pH 6.8; 37 °C.
Procedure: The compounds were evaluated in a human serotonin N-acetyltransferase assay.

Sequence of Serotonin N-acetyltransferase (Q16613 whole entry): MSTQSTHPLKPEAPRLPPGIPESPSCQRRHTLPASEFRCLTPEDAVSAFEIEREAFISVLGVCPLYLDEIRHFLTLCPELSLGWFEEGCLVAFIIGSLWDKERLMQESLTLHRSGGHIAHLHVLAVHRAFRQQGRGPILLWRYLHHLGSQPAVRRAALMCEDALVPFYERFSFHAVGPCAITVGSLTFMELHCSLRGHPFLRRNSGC

Row | SMILES | IC50 [nM]
1 | O=C(CBr)NCCc1c[nH]c2ccccc12 | 1430
2 | COc1ccc2occ(CCNC(=O)CBr)c2c1 [AANAT Inhibitor, 8c] | 40000
3 | COc1ccc2scc(CCNC(=O)CBr)c2c1 [AANAT Inhibitor, 8d] | 610
4 | O=C(CBr)NCCc1csc2ccccc12 [AANAT Inhibitor, 8e] | 680
5 | O=C(CBr)NCCc1csc2ccc(Br)cc12 [AANAT Inhibitor, 8g] | 3780
6 | O=C(CBr)NCCc1csc2ccc(F)cc12 [AANAT Inhibitor, 8h] | 390
7 | CCc1ccc2scc(CCNC(=O)CBr)c2c1 [AANAT Inhibitor, 8i] | 700
8 | O=C(CBr)NCCc1csc2ccc(O)cc12 [AANAT Inhibitor, 12d] | 180
